US20230398087A1, “APPLICATION OF BZP IN TREATMENT OF ISCHEMIC CARDIOVASCULAR AND CEREBRAL VASCULAR DISEASES” (priority 2020, published 2023)

Test: Tissue distribution, metabolism and excretion in animals
Assay type: in vivo
Excerpt: BNBP-OH is the main metabolite of BNBP (via NADPH coenzyme/CYP450).

CCCCC(O)c1ccc(Br)cc1C(=O)[O-].[Na+] (stereo not drawn) [BZP, sodium 5-bromo-2-(α-hydroxypentyl)benzoate]
tissue distribution of BZP (at 110 minutes of administration): the fat content was the highest
detectability in the brain (eliminated quickly): cannot be detected after 50 minutes
concentration in the brain (in vivo): relatively low
conversion of BZP in vivo (not via NADPH coenzyme/CYP450): rapidly converted to BNBP
ability of tissues to transform BZP in vitro (spleen has the lowest ability): liver tissue has the strongest ability to transform BZP in vitro
tissue distribution of BZP (within 50 minutes of administration): higher in the lung tissue
